Test results from patent US9006235B2, “Inhibitors of human immunodeficiency virus replication” (priority 2012, dated 2015).
Where two headings read alike, the source gives them in different places.

Test system: recombinant NL-Rluc virus
Assay: Inhibition of HIV replication (NL-Rluc virus, luciferase readout in MT-2 cells)
Type: cell-based
Conditions: Human immunodeficiency virus 1, MT2, 120 h

| SMILES | EC50 (read-out: Activity) | EC50 | also measured |
| --- | --- | --- | --- |
| Cc1nc2cc(NC(=O)C(=O)c3c[nH]c4ccccc34)nn2c(-c2cc(F)c3c(c2C)CCCO3)c1[C@H](OC(C)(C)C)C(=O)O [Example 31, (2S)-2-(2-(2-(1H-indol-3-yl)-2-oxoacetamido)-7-(8-fluoro-5-methylchroman-6-yl)-5-methylpyrazolo[1,5-a]pyrimidin-6-yl)-2-tert-butoxyacetic acid] | < 0.1 µM |  |  |
| Cc1nc2cc(NC(=O)c3cccc(C#N)c3)nn2c(-c2cc(F)c3c(c2C)CCCO3)c1[C@H](OC(C)(C)C)C(=O)O [Example 8, (2S)-2-tert-butoxy-2-(2-(3-cyanobenzamido)-7-(8-fluoro-5-methylchroman-6-yl)-5-methylpyrazolo[1,5-a]pyrimidin-6-yl)acetic acid] | 0.1 to 1 µM |  |  |
| Cc1ccc(C(=O)Nc2cc3nc(C)c([C@H](OC(C)(C)C)C(=O)O)c(-c4cc(F)c5c(c4C)CCCO5)n3n2)cc1C [Example 10, (2S)-2-tert-butoxy-2-(2-(3,4-dimethylbenzamido)-7-(8-fluoro-5-methylchroman-6-yl)-5-methylpyrazolo[1,5-a]pyrimidin-6-yl)acetic acid] | < 0.1 µM |  |  |
| COc1ccc(CCC(=O)Nc2cc3nc(C)c([C@H](OC(C)(C)C)C(=O)O)c(-c4cc(F)c5c(c4C)CCCO5)n3n2)cc1 [Example 23, (2S)-2-tert-butoxy-2-(7-(8-fluoro-5-methylchroman-6-yl)-2-(3-(4-methoxyphenyl)propanamido)-5-methylpyrazolo[1,5-a]pyrimidin-6-yl)acetic acid] | 0.1 to 1 µM | 0.17 µM |  |
| Cc1nc2cc(NC(=O)c3cc(C(C)(C)C)nn3C)nn2c(-c2cc(F)c3c(c2C)CCCO3)c1[C@H](OC(C)(C)C)C(=O)O [Example 11, (2S)-2-tert-butoxy-2-(2-(3-tert-butyl-1-methyl-1H-pyrazole-5-carboxamido)-7-(8-fluoro-5-methylchroman-6-yl)-5-methylpyrazolo[1,5-a]pyrimidin-6-yl)acetic acid] | < 0.1 µM |  |  |
| Cc1nc2cc(NCCC(F)(F)F)nn2c(-c2cc(F)c3c(c2C)CCCO3)c1[C@H](OC(C)(C)C)C(=O)O [Example 48, (2S)-2-(tert-butoxy)-2-(7-(8-fluoro-5-methylchroman-6-yl)-5-methyl-2-((3,3,3-trifluoropropyl)amino)pyrazolo[1,5-a]pyrimidin-6-yl)acetic acid] | 0.1 to 1 µM | 0.34 µM |  |
| Cc1nc2cc(NC(=O)OCC(C)(C)C)nn2c(-c2cc(F)c3c(c2C)CCCO3)c1[C@H](OC(C)(C)C)C(=O)O [Example 35, (2S)-2-(tert-butoxy)-2-(7-(8-fluoro-5-methylchroman-6-yl)-5-methyl-2-(((neopentyloxy)carbonyl)amino)pyrazolo[1,5-a]pyrimidin-6-yl)acetic acid] | < 0.1 µM |  |  |
| Cc1nc2cc(N(CCC(C)(C)C)CCC(C)(C)C)nn2c(-c2cc(F)c3c(c2C)CCCO3)c1[C@H](OC(C)(C)C)C(=O)O [Example 46, (2S)-2-(2-(bis(3,3-dimethylbutyl)amino)-7-(8-fluoro-5-methylchroman-6-yl)-5-methylpyrazolo[1,5-a]pyrimidin-6-yl)-2-(tert-butoxy)acetic acid] | > 1 µM | 2.57 µM |  |
| Cc1nc2cc(NCc3ccccc3)nn2c(-c2cc(F)c3c(c2C)CCCO3)c1[C@H](OC(C)(C)C)C(=O)O [Example 38, (2S)-2-(2-(benzylamino)-7-(8-fluoro-5-methylchroman-6-yl)-5-methylpyrazolo[1,5-a]pyrimidin-6-yl)-2-(tert-butoxy)acetic acid] | 0.1 to 1 µM | 0.3 µM |  |
| Cc1nc2cc(NCCCC3CCCC3)nn2c(-c2cc(F)c3c(c2C)CCCO3)c1[C@H](OC(C)(C)C)C(=O)O [Example 42, (2S)-2-(tert-butoxy)-2-(2-((3-cyclopentylpropyl)amino)-7-(8-fluoro-5-methylchroman-6-yl)-5-methylpyrazolo[1,5-a]pyrimidin-6-yl)acetic acid] | < 0.1 µM |  |  |
| Cc1nc2cc(NC(=O)OCC[Si](C)(C)C)nn2c(-c2cc(F)c3c(c2C)CCCO3)c1[C@H](OC(C)(C)C)C(=O)O [Example 36, (2S)-2-(tert-butoxy)-2-(7-(8-fluoro-5-methylchroman-6-yl)-5-methyl-2-(((2-(trimethylsilyl)ethoxy)carbonyl)amino)pyrazolo[1,5-a]pyrimidin-6-yl)acetic acid] | < 0.1 µM |  |  |
| Cc1nc2cc(NC(=O)CCCc3ccccc3)nn2c(-c2cc(F)c3c(c2C)CCCO3)c1[C@H](OC(C)(C)C)C(=O)O [Example 12, (2S)-2-tert-butoxy-2-(7-(8-fluoro-5-methylchroman-6-yl)-5-methyl-2-(4-phenylbutanamido)pyrazolo[1,5-a]pyrimidin-6-yl)acetic acid] | < 0.1 µM | 0.05 µM |  |
| CCOc1cccc(C(=O)Nc2cc3nc(C)c([C@H](OC(C)(C)C)C(=O)O)c(-c4cc(F)c5c(c4C)CCCO5)n3n2)c1 [Example 14, (2S)-2-tert-butoxy-2-(2-(3-ethoxybenzamido)-7-(8-fluoro-5-methylchroman-6-yl)-5-methylpyrazolo[1,5-a]pyrimidin-6-yl)acetic acid] | < 0.1 µM |  |  |
| Cc1nc2cc(NC(=O)c3ccc4c(c3)OC(F)(F)O4)nn2c(-c2cc(F)c3c(c2C)CCCO3)c1[C@H](OC(C)(C)C)C(=O)O [Example 22, (2S)-2-tert-butoxy-2-(2-(2,2-difluorobenzo[d][1,3]-dioxole-5-carboxamido)-7-(8-fluoro-5-methylchroman-6-yl)-5-methylpyrazolo[1,5-a]pyrimidin-6-yl)acetic acid] | 0.1 to 1 µM |  |  |
| Cc1ccc(CCNc2cc3nc(C)c([C@H](OC(C)(C)C)C(=O)O)c(-c4cc(F)c5c(c4C)CCCO5)n3n2)cc1 [Example 40, (2S)-2-(tert-butoxy)-2-(7-(8-fluoro-5-methylchroman-6-yl)-5-methyl-2-((4-methylphenethyl)amino)pyrazolo[1,5-a]pyrimidin-6-yl)acetic acid] | < 0.1 µM |  |  |
| Cc1nc2cc(NC(=O)c3cccc(F)c3)nn2c(-c2cc(F)c3c(c2C)CCCO3)c1[C@H](OC(C)(C)C)C(=O)O [Example 5, (2S)-2-tert-butoxy-2-(7-(8-fluoro-5-methylchroman-6-yl)-2-(3-fluorobenzamido)-5-methylpyrazolo[1,5-a]pyrimidin-6-yl)acetic acid] | < 0.1 µM |  |  |
| Cc1nc2cc(NC(=O)CC3CCCCC3)nn2c(-c2cc(F)c3c(c2C)CCCO3)c1[C@H](OC(C)(C)C)C(=O)O [Example 25, (2S)-2-tert-butoxy-2-(2-(2-cyclohexylacetamido)-7-(8-fluoro-5-methylchroman-6-yl)-5-methylpyrazolo[1,5-a]pyrimidin-6-yl)acetic acid] | < 0.1 µM |  |  |
| Cc1nc2cc(NC(=O)CCCOc3ccccc3)nn2c(-c2cc(F)c3c(c2C)CCCO3)c1[C@H](OC(C)(C)C)C(=O)O [Example 27, (2S)-2-tert-butoxy-2-(7-(8-fluoro-5-methylchroman-6-yl)-5-methyl-2-(4-phenoxybutanamido)pyrazolo[1,5-a]pyrimidin-6-yl)acetic acid] | 0.1 to 1 µM |  |  |
| Cc1nc2cc(NC(=O)c3cccc(OCc4ccccc4)c3)nn2c(-c2cc(F)c3c(c2C)CCCO3)c1[C@H](OC(C)(C)C)C(=O)O [Example 7, (2S)-2-(2-(3-(benzyloxy)benzamido)-7-(8-fluoro-5-methylchroman-6-yl)-5-methylpyrazolo[1,5-a]pyrimidin-6-yl)-2-tert-butoxyacetic acid] | < 0.1 µM |  |  |
| Cc1nc2cc(N)nn2c(-c2cc(F)c3c(c2C)CCCO3)c1[C@H](OC(C)(C)C)C(=O)O [Example 1, (2S)-2-(2-amino-7-(8-fluoro-5-methylchroman-6-yl)-5-methylpyrazolo[1,5-a]pyrimidin-6-yl)-2-tert-butoxyacetic acid] | > 1 µM | 2.48 µM |  |
| CCOc1ccccc1C(=O)Nc1cc2nc(C)c([C@H](OC(C)(C)C)C(=O)O)c(-c3cc(F)c4c(c3C)CCCO4)n2n1 [Example 19, (2S)-2-tert-butoxy-2-(2-(2-ethoxybenzamido)-7-(8-fluoro-5-methylchroman-6-yl)-5-methylpyrazolo[1,5-a]pyrimidin-6-yl)acetic acid] | < 0.1 µM |  |  |
| Cc1nc2cc(N3CCCCC3)nn2c(-c2cc(F)c3c(c2C)CCCO3)c1[C@H](OC(C)(C)C)C(=O)O [Example 50, (2S)-2-(tert-butoxy)-2-(7-(8-fluoro-5-methylchroman-6-yl)-5-methyl-2-(piperidin-1-yl)pyrazolo[1,5-a]pyrimidin-6-yl)acetic acid] | < 0.1 µM | 0.06 µM |  |
| Cc1nc2cc(NCCc3ccccc3)nn2c(-c2cc(F)c3c(c2C)CCCO3)c1[C@H](OC(C)(C)C)C(=O)O [Example 39, (2S)-2-(tert-butoxy)-2-(7-(8-fluoro-5-methylchroman-6-yl)-5-methyl-2-(phenethylamino)pyrazolo[1,5-a]pyrimidin-6-yl)acetic acid] | < 0.1 µM |  |  |
| Cc1ccc(OC(=O)Nc2cc3nc(C)c([C@H](OC(C)(C)C)C(=O)O)c(-c4cc(F)c5c(c4C)CCCO5)n3n2)cc1 [Example 32, (2S)-2-(tert-butoxy)-2-(7-(8-fluoro-5-methylchroman-6-yl)-5-methyl-2-(((p-tolyloxy)carbonyl)amino)pyrazolo[1,5-a]pyrimidin-6-yl)acetic acid] |  |  | EC50 (MT-2 cells infected with NL-RLuc virus, 5 days of incubation, luciferase, serum condition not specified, read-out: Activity): > 1 µM; EC50 (MT-2 cells infected with NL-RLuc virus, 5 days of incubation, luciferase, serum condition not specified, read-out: EC50): 6.41 µM |
| Cc1nc2cc(NCCC(C)CC(C)(C)C)nn2c(-c2cc(F)c3c(c2C)CCCO3)c1[C@H](OC(C)(C)C)C(=O)O (stereo partly drawn) [Example 47, (2S)-2-(tert-butoxy)-2-(7-(8-fluoro-5-methylchroman-6-yl)-5-methyl-2-((3,5,5-trimethylhexyl)amino)pyrazolo[1,5-a]pyrimidin-6-yl)acetic acid] | < 0.1 µM |  |  |
| Cc1nc2cc(N(CCC(C)C)CCC(C)C)nn2c(-c2cc(F)c3c(c2C)CCCO3)c1[C@H](OC(C)(C)C)C(=O)O [Example 44, (2S)-2-(tert-butoxy)-2-(2-(diisopentylamino)-7-(8-fluoro-5-methylchroman-6-yl)-5-methylpyrazolo[1,5-a]pyrimidin-6-yl)acetic acid] | > 1 µM | 1.6 µM |  |
